Results: ChEMBL document CHEMBL1155397, “Synthesis of amino acid conjugates to 2-imino-3-methylene-5-carboxypyrrolidine and 2-imino-3-methylene-6-carboxypiperidine” (2010)

Experiments:
Format in all cases: functional
Conditions in all cases: read-out: IZ
Erwinia amylovora [1] = test: Antibacterial activity against Erwinia amylovora at 0.1 ug after 12 hrs by agar diffusion assay
Erwinia amylovora [2] = test: Antibacterial activity against Erwinia amylovora at 1 ug after 12 hrs by agar diffusion assay
Erwinia amylovora [3] = test: Antibacterial activity against Erwinia amylovora at 100 ug after 12 hrs by agar diffusion assay
Erwinia amylovora [4] = test: Antibacterial activity against Erwinia amylovora at 10 ug after 12 hrs by agar diffusion assay

SMILES	zone of inhibition at 0.1 µg/disc (Erwinia amylovora [1]) [mm]	zone of inhibition at 1 µg/disc (Erwinia amylovora [2]) [mm]	zone of inhibition at 100 µg/disc (Erwinia amylovora [3]) [mm]	zone of inhibition at 10 µg/disc (Erwinia amylovora [4]) [mm]
C=C1C[C@@H](C(=O)N[C@H](C(=O)O)C(C)C)NC1=N	10	19	–	–
C=C1C[C@H](C(=O)N[C@H](C(=O)O)C(C)C)NC1=N	–	6	19	10
C=C1C[C@@H](C(=O)N[C@@H](C(=O)O)C(C)C)NC1=N	–	–	10	–
